Where two headings read alike, the source gives them in different places.
Legend:
[1] = system: nitric oxide production by macrophages activated with Saccharomyces cerevisiae; assay: Inhibition of nitric oxide production by stimulated macrophages (Griess); type: cell-based, mouse
Method: Second, the anti-inflammatory activity of these compounds at a maximum concentration of 0.22 mM was evaluated by assessing their ability to inhibit the synthesis of NO (figure 2).
Peritoneal macrophages were isolated from four eight-week-old, 25 g Wistar mice by intraperitoneal injection of 0.5 ml of 2% starch solution (inflammatory agent) to stimulate their production. Four days later, the animals were sacrificed, and 5 ml of phosphate buffered saline (PBS) buffer (0.1 M, pH 7.4) was injected into their peritoneal cavity with a syringe. After massage of the peritoneal cavity, the injected buffer was slowly aspirated through a small abdominal incision. The resulting solution containing macrophages was transferred to 15 ml Falcon tubes and kept in ice. The fluid obtained was then centrifuged (1620 g, 4°C and 10 min), and the supernatant was removed. The erythrocytes were removed by osmotic shock. The cells were suspended in 1 ml hypotonic 0.05 M NaCl solution for 1 min. Isotonicity was then restored by adding 1 ml of 0.25 M NaCl. The mixture was centrifuged (1620 g, 4°C and 10 min) and the resulting pellet was suspended in 2 ml of Dulbecco's modified eagle medium (DMEM) (containing 0.2% streptomycin and penicillin, 0.4 g l^−1 bovine serum albumin and 3.7 g l^−1 NaHCO3 in PBS and filtered with 0.22 µm Millipore filters).
In the 96-well plate, 150 µl of a cell suspension (10^4 cells per well) were distributed in different wells. In the test and positive control wells, 50 µl of Saccharomycces cerevisiae (250 µg ml^–1) was added to stimulate the production of pro-inflammatory cytokines. Meanwhile 50 µl of DMEM was added in the negative control wells. The microplate was incubated at 37°C (5% CO2) for 1 h, then 50 µl of solution of compounds or baicalin at different concentrations (0.241 × 10^–3, 2.23 × 10^–3, 22.4 × 10^–3, 220 × 10^–3 and 2410 × 10^–3 mM) were added to the test wells and 50 µl DMEM to the positive (cells activated with Saccharomyces cerevisiae) and negative (inactivated cells) control wells. After 3 h of incubation at 37°C (5% CO2), the cell supernatants were used for NO [41].
A total of 100 µl of the previously obtained cell supernatants were mixed with 100 µl of Griess reagent (1% sulphanylamide, 0.1% naphthyl ethylenediamine dihydrochloride in 2.5% v/v phosphoric acid). The mixture was incubated for 10 min at room temperature and the absorbance is read at 550 nm. The amount of nitrite was measured using the standard sodium […] curve. The percentage inhibition of nitric oxide synthesis was calculated using the following formula:
%inhibition=[(ODcontrol−ODassay/ODcontrol]×100).

[2] = DPPH radical scavenging test; type: biochemical; details: 517 nm, 30 min
Method: (§1) The in vitro antioxidant ability of the compounds synthesized in this work was evaluated using three different assays, including (i) the ABTS radical cation reduction-decolorization test, which uses the technique of Khan et al. consisting of the reduction of the cation radical by an antioxidant through the discoloration measured by absorption at the wavelength of 734 nm; (ii) interaction with the stable free radical DPPH, based on Bassene’s method, in which the scavenging of DPPH radicals is carried out by a colorimetric method consisting of the reduction of the DPPH radical, determined by its absorption at a wavelength of 517 nm; and (iii) the FRAP test according to the protocol of Path Canada, based on the ability of a substance to reduce Fe^3+ ions to Fe^2+ ions, which, in the presence of 1,10-phenanthroline, form a red-orange complex whose optical density can be measured at 505 nm.
The DPPH radical trapping protocol is based on Bassene’s method, modified for colorimetric analysis. DPPH is a stable purple organic nitrogen radical that absorbs light at 517 nm. When an anti-free radical agent is present, DPPH is reduced to a stable yellow compound, indicated by a loss of colour between 470 and 517 nm. A 0.02% DPPH solution was made with ethanol and stored in a sealed jar in the dark. Stock solutions of the synthesized compounds were prepared by dissolving 100 mg of each in 1 ml of DMSO, and the final concentration of DMSO concentration in the first well was 0.5%. These stocks were then diluted to achieve concentrations (500, 250, 125, 62.5, 31.25, 15.625 and 7.8125)/Mi in mM (Mi: molecular weight of each synthetic compound). Each dilution (25 µl) was put to the wells and 75 µl of the DPPH solution (0.02%) were added. Optical densities were measured at 517 nm after 30 min of incubation in the dark. The negative control used DPPH alone, while the positive control used gallic acid treated with solutions of the synthesized compounds at final concentrations (50, 25, 12.5, 6.25, 3.125, 1.5625 and 0.78125)/Mi in mM. Synthesized compounds were also tested alone to assess fluorescence.
Assays were performed in duplicate, and results were averaged. Percentage inhibition (PI), reflecting the antioxidant activity related to the DPPH˙ radical scavenging effect, was calculated using the following formula:
(PI)=Acontrol−Atest/Acontrol×100,
where Acontrol = absorbance of the control sample and Atest = absorbance of the tested sample.
(§2) The percentages of scavenging or 50% reduction were calculated using gallic acid as a standard for 100% reduction. The concentration of radical scavengers needed to neutralize 50% of free radicals, referred to as SC50, was determined using GraphPad Prism 8.0.1 software (244).

[3] = Ferric reducing antioxidant power (FRAP) test; type: biochemical; details: 505 nm
Method: as §1
The Fe^3+ reduction test followed Path Canada’s protocol with some modifications, assessing the reduction of Fe^3+ ions to Fe^2+ ions, which form a red-orange complex with 1,10-phenanthroline, measurable at 505 nm. The colour intensity correlates with the amount of Fe^3+ reduced. Four solutions were prepared: 1.2 mg ml^−1 of Fe^3+ solution (1.2 mg FeCl3 in 1 ml distilled H2O), 0.2% ortho-phenanthroline solution (200 mg powder in 100 ml ethanol), 2 mg ml^−1 of gallic acid solution (2 mg gallic acid in 1 ml distilled H2O) as a positive control, stock and dilute solutions of the synthesized compounds (see §3.2.5.1). In a 96-well microplate, 180 µl distilled H2O was added to the first column and 100 µl to others for dilution. Each compound solution (20 µl at 10 mg ml^−1) was mixed with 25 µl Fe^3+ solution and incubated for 15 min in the dark at room temperature. Afterwards, 50 µl ortho-phenanthroline solution was added, followed by another 15 min incubation. Optical density was measured at 505 nm using a TECAN M200 plate reader. The positive control was treated similarly to the DPPH and ABTS assays.
as §2

[4] = Mus musculus, Macrophage, 3 h, peritoneal macrophages activated with Saccharomyces cerevisiae, 3 h incubation, Griess reagent, read-out: IC50 of NO inhibition assay
[5] = Mus musculus, Macrophage, classified according to the IC50 values of table 1, read-out: anti-inflammatory activity (class by IC50 of NO inhibition)
[6] = peritoneal macrophages activated with Saccharomyces cerevisiae, 3 h incubation, Griess reagent, read-out: IC50 of NO inhibition assay
[7] = first replicate, read-out: DPPH SC50(1)
[8] = mean of duplicate, read-out: DPPH mean SC50
[9] = second replicate, read-out: DPPH SC50(2)
[10] = first replicate, read-out: FRAP SC50(1)
[11] = mean of duplicate, read-out: FRAP mean SC50
[12] = second replicate, read-out: FRAP SC50(2)

Row | SMILES | IC50 [1, 4] [mM] | IC50 [1, 5] [mM] | IC50 [1, 6] [mM] | EC50 [2, 7] [mM] | EC50 [2, 8] [mM] | EC50 [2, 9] [mM] | EC50 [3, 10] [mM] | EC50 [3, 11] [mM] | EC50 [3, 12] [mM]
1 | CCCCCCCCCCCC(=O)OCCOC(=O)C(C)c1ccc(CC(C)C)cc1 (centres unmarked) [Compound 5a, 2-((2-(4-isobutylphenyl)propanoyl)oxy)ethyl dodecanoate] | ≤ 0.05 | < 1 | 0.05 | 3.5 | 3.52 | 3.53 | 4.66 | 4.67 | 4.67
2 | O=C(/C=C/c1ccccc1)OCCOC(=O)c1ccccc1O [Compound 12, (E)-2-(cinnamoyloxy)ethyl 2-hydroxybenzoate] | 0.17 |  |  | 8.63 | 8.68 | 8.73 | 6.21 | 6.21 | 6.22
3 | CC(C)Cc1ccc(C(C)C(=O)O)cc1 (centres unmarked) [Compound 1, ibuprofen, reference compound] | 0.33 |  |  | 9.81 | 10 | 10.2 | 12.9 | 13 | 13.2
4 | CC(C)Cc1ccc(C(C)C(=O)OCCOC(=O)C=Cc2ccccc2)cc1 (centres unmarked) [Compound 14, 2-((2-(4-isobutylphenyl)propanoyl)oxy)ethyl cinnamate] | ≤ 0.05 | < 1 | 0.05 | 6.64 | 6.13 | 6.68 | 7.68 |  | 7.27
5 | CC(C)Cc1ccc(C(C)C(=O)OCCO)cc1 (centres unmarked) [Compound 3, 2-hydroxyethyl 2-(4-isobutylphenyl)propanoate] |  | < 1 |  | 10.5 | 10.4 | 10.4 | 7.58 | 7.48 | 7.39
6 | O=C(O)/C=C/c1ccccc1 [Compound 11, cinnamic acid, reference compound] | 0.34 |  |  | 11.1 | 11 | 10.9 | 13.8 | 13.7 | 13.6
7 | CC(C)Cc1ccc(C(=O)OCCOC(=O)C(C)c2ccc(CC(C)C)cc2)cc1 (centres unmarked) [Compound 2, 2-((2-(4-isobutylphenyl)propanoyl)oxy)ethyl 4-isobutylbenzoate] | 0.57 | < 1 |  | 5.05 | 4.92 | 4.78 | 6.79 | 6.79 | 6.79

Continued by falling EC50 [2, 7], values first:

Row | IC50 [1, 4] [mM] | IC50 [1, 5] [mM] | IC50 [1, 6] [mM] | EC50 [2, 7] [mM] | EC50 [2, 8] [mM] | EC50 [2, 9] [mM] | EC50 [3, 10] [mM] | EC50 [3, 11] [mM] | EC50 [3, 12] [mM] | SMILES
8 | 0.05 |  |  | 12.2 | 12.1 | 12.1 | 11 | 10.9 | 10.9 | O=C(OCCO)c1ccccc1O [Compound 7, 2-hydroxyethyl 2-hydroxybenzoate]
9 | 0.9 |  |  | 6.61 |  | 6.46 | 6.73 | 6.69 | 6.66 | O=C(OCCOC(=O)c1ccccc1O)c1ccccc1O [Compound 13, Ethane-1,2-diyl bis(2-hydroxybenzoate)]
10 | > 1 |  | 1.36 | 5.82 | 5.79 | 5.77 | 8.06 | 8.03 | 8 | CCCCCCCCCCCC(=O)OCCOC(=O)c1ccccc1O [DEW4a]

Source: publication PMC12074795, “Synthesis and biological evaluation of esterified anti-inflammatory drugs with ethylene glycol linkers: cytotoxicity, anti-inflammatory and antioxidant properties” (Royal Society Open Science, 2025)
